Assay results from ChEMBL document CHEMBL1909046, “DrugMatrix in vitro pharmacology data”.

Assays:
[1] = target: T1, C-X-C chemokine receptor type 2 (Homo sapiens, UniProt P25025); format: cell membranes, Membrane; details: cho-k1; note: in other assays of this panel Not Active means under 50% inhibition at 10 µM
T1 sequence (P25025 whole entry): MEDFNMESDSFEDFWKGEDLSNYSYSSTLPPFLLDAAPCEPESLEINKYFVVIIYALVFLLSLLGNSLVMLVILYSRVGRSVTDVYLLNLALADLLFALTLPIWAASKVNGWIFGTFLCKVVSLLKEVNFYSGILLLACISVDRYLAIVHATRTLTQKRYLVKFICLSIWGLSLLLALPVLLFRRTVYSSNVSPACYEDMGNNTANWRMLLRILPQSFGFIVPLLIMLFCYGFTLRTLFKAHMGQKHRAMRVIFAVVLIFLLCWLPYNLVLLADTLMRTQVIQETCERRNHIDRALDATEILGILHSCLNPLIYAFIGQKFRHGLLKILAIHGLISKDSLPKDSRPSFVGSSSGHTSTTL

[2] = target: T2, Neuropeptide Y receptor type 1 (Homo sapiens, UniProt P25929); format: cell membranes, Membrane; details: sk-n-mc; note: in other assays of this panel Not Active means under 50% inhibition at 10 µM
T2 sequence (P25929 whole entry): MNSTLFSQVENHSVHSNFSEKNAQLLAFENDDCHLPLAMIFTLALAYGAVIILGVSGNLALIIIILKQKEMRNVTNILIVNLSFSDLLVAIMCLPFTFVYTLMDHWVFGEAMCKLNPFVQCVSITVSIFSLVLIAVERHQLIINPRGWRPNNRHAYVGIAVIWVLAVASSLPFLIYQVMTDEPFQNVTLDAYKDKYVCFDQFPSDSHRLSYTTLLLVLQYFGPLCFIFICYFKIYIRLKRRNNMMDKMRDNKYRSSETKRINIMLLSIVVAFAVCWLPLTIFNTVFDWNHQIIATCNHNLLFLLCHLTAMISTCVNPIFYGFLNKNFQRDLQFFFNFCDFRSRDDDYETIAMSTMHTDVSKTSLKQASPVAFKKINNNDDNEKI

[3] = target: Beta-1 adrenergic receptor (Homo sapiens, UniProt P08588); assay: DRUGMATRIX: Adrenergic beta1 radioligand binding (ligand: [125I] Cyanopindolol); format: cell membranes, CHO-K1, Membrane; details: cho-k1; Not Active = under 50% inhibition at 10 µM
[4] = target: Platelet-activating factor receptor (Homo sapiens, UniProt P25105); assay: biochemical; format: tissue-based; details: platelet; note: in other assays of this panel Not Active means under 50% inhibition at 10 µM
[5] = DRUGMATRIX: Glutamate, AMPA radioligand binding (ligand: [3H] AMPA); format: cell membranes, Rattus norvegicus, Wistar, Cerebral cortex, Membrane; details: Not Active = under 50% inhibition at 10 µM
Cytochrome P450 2A6 = target: T3, Cytochrome P450 2A6 (Homo sapiens, UniProt P11509); details: bti-tn-5b1-4; note: in other assays of this panel Not Active means under 50% inhibition at 10 µM
T3 sequence (P11509 whole entry): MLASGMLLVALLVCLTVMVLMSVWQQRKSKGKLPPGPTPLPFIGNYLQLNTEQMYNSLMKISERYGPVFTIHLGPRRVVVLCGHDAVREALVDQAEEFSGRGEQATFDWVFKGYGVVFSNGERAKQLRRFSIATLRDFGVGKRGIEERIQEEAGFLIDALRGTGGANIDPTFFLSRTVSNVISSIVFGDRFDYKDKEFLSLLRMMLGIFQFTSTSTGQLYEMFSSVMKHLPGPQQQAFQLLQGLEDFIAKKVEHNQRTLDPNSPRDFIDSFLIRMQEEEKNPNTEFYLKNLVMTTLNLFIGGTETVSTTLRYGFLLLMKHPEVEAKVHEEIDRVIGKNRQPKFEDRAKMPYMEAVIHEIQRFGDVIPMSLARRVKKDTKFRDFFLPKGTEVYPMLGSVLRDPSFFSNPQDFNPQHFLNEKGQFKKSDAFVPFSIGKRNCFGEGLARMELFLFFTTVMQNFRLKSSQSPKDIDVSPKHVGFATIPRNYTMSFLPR

Substance-P receptor = Substance-P receptor (Homo sapiens, UniProt P25103); format: cell membranes, Membrane; details: cho; note: in other assays of this panel Not Active means under 50% inhibition at 10 µM
[6] = DRUGMATRIX: GABAA, Chloride Channel, TBOB radioligand binding (ligand: [3H] TBOB); format: cell membranes, Rattus norvegicus, Wistar, Cerebral cortex, Membrane; details: Not Active = under 50% inhibition at 10 µM
[7] = DRUGMATRIX: Potassium Channel [KATP] radioligand binding (ligand: [3H] Glyburide); format: cell membranes, Membrane; details: hit-t15; Not Active = under 50% inhibition at 10 µM
[8] = DRUGMATRIX: beta-Lactamase enzyme inhibition (substrate: Nitrocefin); set-up: species or system Bacillus cereus; details: Not Active = under 50% inhibition at 10 µM

Chain of Substance-P receptor (P25103 whole entry): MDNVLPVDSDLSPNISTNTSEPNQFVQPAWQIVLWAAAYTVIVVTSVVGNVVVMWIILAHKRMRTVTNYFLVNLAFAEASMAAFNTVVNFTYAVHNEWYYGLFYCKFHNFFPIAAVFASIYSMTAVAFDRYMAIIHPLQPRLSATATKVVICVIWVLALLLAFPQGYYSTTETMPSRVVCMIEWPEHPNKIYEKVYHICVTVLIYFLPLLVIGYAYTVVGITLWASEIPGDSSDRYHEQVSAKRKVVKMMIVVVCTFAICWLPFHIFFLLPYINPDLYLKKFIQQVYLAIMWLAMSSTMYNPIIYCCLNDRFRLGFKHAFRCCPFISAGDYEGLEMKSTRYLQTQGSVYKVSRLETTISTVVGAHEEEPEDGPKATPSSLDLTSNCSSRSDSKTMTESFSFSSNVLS
Chain of Beta-1 adrenergic receptor (P08588 whole entry): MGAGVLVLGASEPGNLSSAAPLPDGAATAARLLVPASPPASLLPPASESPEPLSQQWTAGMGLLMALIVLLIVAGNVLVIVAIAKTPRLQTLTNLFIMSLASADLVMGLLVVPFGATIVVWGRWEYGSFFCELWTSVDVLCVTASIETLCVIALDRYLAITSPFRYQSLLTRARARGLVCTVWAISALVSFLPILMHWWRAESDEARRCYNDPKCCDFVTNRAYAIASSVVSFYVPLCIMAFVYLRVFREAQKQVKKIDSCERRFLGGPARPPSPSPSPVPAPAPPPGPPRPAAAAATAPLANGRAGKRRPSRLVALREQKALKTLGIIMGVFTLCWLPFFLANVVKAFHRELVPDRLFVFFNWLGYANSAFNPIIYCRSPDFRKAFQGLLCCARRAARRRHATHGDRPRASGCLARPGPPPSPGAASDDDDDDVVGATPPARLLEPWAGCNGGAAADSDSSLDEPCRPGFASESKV
Chain of Platelet-activating factor receptor (P25105 whole entry): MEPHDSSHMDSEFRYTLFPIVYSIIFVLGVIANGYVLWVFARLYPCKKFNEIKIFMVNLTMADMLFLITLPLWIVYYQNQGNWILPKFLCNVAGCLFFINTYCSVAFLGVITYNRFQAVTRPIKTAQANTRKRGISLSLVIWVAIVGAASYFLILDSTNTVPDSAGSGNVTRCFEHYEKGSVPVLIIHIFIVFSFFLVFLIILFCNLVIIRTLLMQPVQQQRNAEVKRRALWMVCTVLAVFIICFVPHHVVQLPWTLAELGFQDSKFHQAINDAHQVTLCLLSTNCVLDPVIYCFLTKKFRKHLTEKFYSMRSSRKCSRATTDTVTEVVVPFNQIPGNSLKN

COc1cc(N)nc2[nH]c(-c3ccc(F)cc3)c(-c3ccncc3)c12
Not Active: IC50 [1] | IC50 [2] | IC50 [3] | IC50 [4] | IC50 [5] | Ki [5] | IC50 (Cytochrome P450 2A6) | Ki (Cytochrome P450 2A6) | IC50 (Substance-P receptor) | IC50 [6] | Ki [6] | IC50 [7] | Ki [7] | IC50 [8] | Ki [8]

COc1ccc(/C=C/C(=O)Nc2ccccc2C(=O)O)cc1OC
Not Active: IC50 [1] | IC50 [2] | IC50 [3] | IC50 [4] | IC50 [5] | Ki [5] | IC50 (Cytochrome P450 2A6) | Ki (Cytochrome P450 2A6) | IC50 (Substance-P receptor) | IC50 [6] | Ki [6] | IC50 [7] | Ki [7] | IC50 [8] | Ki [8]

CCOC(N)=O
Not Active: IC50 [1] | IC50 [2] | IC50 [3] | IC50 [4] | IC50 [5] | Ki [5] | IC50 (Cytochrome P450 2A6) | Ki (Cytochrome P450 2A6) | IC50 (Substance-P receptor) | IC50 [6] | Ki [6] | IC50 [7] | Ki [7] | IC50 [8] | Ki [8]

CC(=O)Nc1nnc(S(N)(=O)=O)s1 [ACETAZOLAMIDE]
Not Active: IC50 [1] | IC50 [2] | IC50 [3] | IC50 [4] | IC50 (Cytochrome P450 2A6) | Ki (Cytochrome P450 2A6) | IC50 (Substance-P receptor)

O=c1[nH]c2ccccc2n1CCCN1CCC(n2c(=O)[nH]c3cc(Cl)ccc32)CC1 [DOMPERIDONE]
Not Active: IC50 [1] | IC50 [2] | IC50 [3] | IC50 [4] | IC50 (Substance-P receptor)

CC(C)OC(=O)C(C)(C)Oc1ccc(C(=O)c2ccc(Cl)cc2)cc1 [FENOFIBRATE]
Not Active: IC50 [1] | IC50 [2] | IC50 [3] | IC50 [4] | IC50 (Cytochrome P450 2A6) | Ki (Cytochrome P450 2A6) | IC50 (Substance-P receptor)

OCCN1CCN(CCCN2c3ccccc3Sc3ccc(C(F)(F)F)cc32)CC1 [FLUPHENAZINE]
Not Active: IC50 [1] | IC50 [2] | IC50 [3] | IC50 [4] | IC50 (Cytochrome P450 2A6) | Ki (Cytochrome P450 2A6) | IC50 (Substance-P receptor)

CN1C2CCCC1CC(NC(=O)c1nn(C)c3ccccc13)C2 (stereo unspecified) [GRANISETRON]
Not Active: IC50 [1] | IC50 [2] | IC50 [3] | IC50 [4] | IC50 (Cytochrome P450 2A6) | Ki (Cytochrome P450 2A6) | IC50 (Substance-P receptor)

CC[C@@H](CO)NC(=O)[C@@H]1C=C2c3cccc4c3c(cn4C)C[C@H]2N(C)C1 [METHYSERGIDE]
Not Active: IC50 [1] | IC50 [2] | IC50 [4] | IC50 (Cytochrome P450 2A6) | Ki (Cytochrome P450 2A6) | IC50 (Substance-P receptor)

CCN(CC)CC#CCOC(=O)C(O)(c1ccccc1)C1CCCCC1 (stereo unspecified) [OXYBUTYNIN]
Not Active: IC50 [1] | IC50 [2] | IC50 [3] | IC50 [4] | IC50 (Cytochrome P450 2A6) | Ki (Cytochrome P450 2A6) | Ki (Substance-P receptor)

C[C@]12CC[C@H]3[C@@H](CCC4=CC(=O)CC[C@@]43C)[C@@H]1CC[C@@H]2O [TESTOSTERONE]
Not Active: IC50 [1] | IC50 [2] | IC50 [3] | IC50 [4] | IC50 [5] | Ki [5] | IC50 (Cytochrome P450 2A6) | Ki (Cytochrome P450 2A6) | IC50 (Substance-P receptor) | IC50 [6] | Ki [6] | IC50 [8] | Ki [8]

CC(C)(C)NC[C@H](O)COc1nsnc1N1CCOCC1 [TIMOLOL]
Not Active: IC50 [1] | IC50 [2] | IC50 [4] | IC50 [5] | Ki [5] | IC50 (Cytochrome P450 2A6) | Ki (Cytochrome P450 2A6) | IC50 (Substance-P receptor) | IC50 [6] | Ki [6] | IC50 [7] | Ki [7] | IC50 [8] | Ki [8]

CCS(=O)(=O)CCn1c([N+](=O)[O-])cnc1C [TINIDAZOLE]
Not Active: IC50 [1] | IC50 [2] | IC50 [3] | IC50 [4] | IC50 [5] | Ki [5] | IC50 (Substance-P receptor) | IC50 [6] | Ki [6] | IC50 [7] | Ki [7] | IC50 [8] | Ki [8]

O=c1n(CCCN2CCN(c3cccc(Cl)c3)CC2)nc2ccccn12 [TRAZODONE]
Not Active: IC50 [1] | IC50 [2] | IC50 [3] | IC50 [4] | IC50 (Cytochrome P450 2A6) | Ki (Cytochrome P450 2A6) | IC50 (Substance-P receptor)

COc1ccc(CN2CCNCC2)c(OC)c1OC [TRIMETAZIDINE]
Not Active: IC50 [1] | IC50 [2] | IC50 [3] | IC50 [4] | IC50 [5] | Ki [5] | IC50 (Substance-P receptor) | IC50 [6] | Ki [6] | IC50 [7] | Ki [7] | IC50 [8] | Ki [8]
